Here are results for 49 molecules from patent publication US20140256771A1, “COMPOUNDS THAT MODULATE INTRACELLULAR CALCIUM” (CalciMedica, Inc., priority 2011, published 2014).

Some results are limits rather than exact numbers.

The target of one assay is T1, Orai1/STIM1 (Homo sapiens, UniProt Q96D31).
T1 construct: expressed in transfected cells; host or cells: HEK-293
Nature of the assay: Fluorescence-based assay of store-operated calcium entry in Orai1/STIM1 stable cells. The assay is classed as cell-based. Conditions: Table iv; HEK-293 cells stably expressing human STIM1 and Orai1; 50% inhibition of Peak-Basal fluo-4 signal; read-out: Orai1/STIM1 (IC50, μmol). The method, then: A. Fluorescence-based Assay of Store-Operated Calcium Entry in Orai1/STIM1 Stable Cells.
Cells stably expressing recombinant human STIM1 and Orai1 are generated by transfecting a human Orai1 expression plasmid (pcDNA3.1-Orai1-cmyc) into HEK-293 cells stably overexpressing human STIM1 (Roos et al. 2005 JCB 169(3): 435-445). Colonies of cells stably expressing both STIM1 and Orai1 proteins are selected and then subcloned by limiting dilution. Cells were cultured at 37° C./6% CO2 in complete medium with 10% FBS and appropriate selection markers.
The day prior to performing the assay Orai1/STIM1 stable cells are plated in 50 μL of complete medium at 90-95% confluence in a 384 well plate. Cells are grown at 37° C./6% CO2 overnight. On the day of the assay, 1.5 μM fluo-4-AM (Invitrogen) in complete medium is added to the cells, which are then incubated for 1 hour at RT. Cells are washed once in Ca^2+-free HBSS (Hank's buffered saline solution) and 35 μl of Ca^2+-free HBSS is added to each well. Test compounds are added to wells in a 10 μL Ca^2+-free HBSS solution, prepared at 4.5× the desired final concentration, and incubated for 30 minutes at RT. The initial baseline fluorescence signal is then measured with a FLIPR^384 (Molecular Devices) plate reader. Calcium entry is initiated by adding 5 μl of 10× CaCl2 (10 mM) in HBSS, and changes in cellular fluorescence are measured with the FLIPR^384 plate reader. In each well, the magnitude of the fluorescence signal as a result of calcium entry into the cell is determined by calculating the difference between the peak fluorescence signal measured after calcium addition and the initial baseline fluorescence signal (designated Peak-Basal). IC50 values are typically calculated as the concentration that inhibited 50% of the Peak-Basal signal (Table A).

The test system of another assay is RBL-2H3 cells. As to the kind of experiment: Fluorescence-based assay of store-operated calcium entry in RBL-2H3 cells. The assay is classed as cell-based, rat. Conditions: Rattus norvegicus, RBL-2H3; Table iv; thapsigargin store depletion; 50% inhibition of Upslope; read-out: RBL-2H3 (IC50, μmol). As to the method: B. Fluorescence-based Assay of Store-Operated Calcium Entry in RBL-2H3Cells.
RBL-2H3 cells are obtained from ATCC and maintained in complete medium with 10% FBS at 37° C./6% CO2.
The day prior to performing the assay, RBL-2H3 cells are plated in 50 μL of complete medium in a 384 well plate. Cells are grown at 37° C./6% CO2 overnight and grow to 50-60% confluence by the next day. On the assay day, 1.5 μM Fluo-4-AM dye (Invitrogen) in complete medium is added and incubated for 1 hour at RT. Cells are washed twice in Ca^2+-free HBSS buffer and 35 μL Ca^2+-free HBSS buffer is added to each well. 10 μL of a test compound prepared in a Ca^2+-free HBSS solution at 4.5× of the desired concentration is added to a well and incubated for 5 minutes at RT. 10 μL of thapsigargin prepared in a Ca^2+-free HBSS solution at 5.5× of the desired concentration (5.5 uM) is added to each well and incubated for an additional 25 minutes. The initial baseline fluorescence signal is measured with a FLIPR^384 (Molecular Devices) plate reader. 5 μL of 12× calcium in HBSS (12 mM) is added and changes in cellular fluorescence are measured with the FLIPR^384 plate reader. In each well, the change in the fluorescent signal as a function of time due to calcium entry into the cell is determined by calculating the difference between the fluorescent signal measured 7 seconds after calcium addition and the initial baseline fluorescence signal at time zero (t=0). This parameter is designated Upslope. The IC50 value is calculated as the concentration at which 50% of the Upslope is inhibited.

T1 sequence (Q96D31 whole entry): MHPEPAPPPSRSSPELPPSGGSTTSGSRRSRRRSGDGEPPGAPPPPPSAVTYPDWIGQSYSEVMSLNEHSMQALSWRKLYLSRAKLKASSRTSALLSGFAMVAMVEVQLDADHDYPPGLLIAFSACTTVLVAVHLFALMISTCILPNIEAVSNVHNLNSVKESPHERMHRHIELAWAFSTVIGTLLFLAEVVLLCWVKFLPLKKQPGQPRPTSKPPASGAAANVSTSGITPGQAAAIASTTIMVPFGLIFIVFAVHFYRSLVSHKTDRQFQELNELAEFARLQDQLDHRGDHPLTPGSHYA

Regarding `Cn1nc(C(F)(F)F)cc1-c1ccc(NC(=O)c2c(F)cccc2F)cc1F`, the IC50 on Orai1/STIM1 and in the assay on RBL-2H3 cells was less than 600 nM throughout.
As to `Cn1nc(C(F)(F)F)cc1-c1ccc(NC(=O)c2ccc(F)cc2F)cc1F`, the IC50 at Orai1/STIM1 and in the assay on RBL-2H3 cells was less than 600 nM throughout.
Turning to `Cn1nc(C(F)(F)F)cc1-c1ccc(NC(=O)c2c(F)cc(F)cc2F)cc1F`, the IC50 at Orai1/STIM1 and in the assay with RBL-2H3 cells was less than 600 nM each time.
As for `Cn1nc(C(F)(F)F)cc1-c1ccc(NC(=O)c2ccncc2F)cc1F`, the IC50 at Orai1/STIM1 and in the assay on RBL-2H3 cells was less than 600 nM each time.
For `Cn1nc(C(F)(F)F)cc1-c1ccc(NC(=O)c2cncc(F)c2)cc1F`, the IC50 was less than 600 nM at Orai1/STIM1 and 600 to 1200 nM in the assay with RBL-2H3 cells.
For `Cc1cnccc1C(=O)Nc1ccc(-c2cc(C(F)(F)F)nn2C)c(F)c1`, the IC50 at Orai1/STIM1 is 600 to 1200 nM; in the assay with RBL-2H3 cells it was less than 600 nM.
For `Cc1nnsc1C(=O)Nc1ccc(-c2cc(C(F)(F)F)nn2C)c(F)c1`, the IC50 at Orai1/STIM1 and in the assay on RBL-2H3 cells was less than 600 nM each time.
As to `Cc1ncsc1C(=O)Nc1ccc(-c2cc(C(F)(F)F)nn2C)c(F)c1`, the IC50 on Orai1/STIM1 and in the assay on RBL-2H3 cells was less than 600 nM throughout.
`Cn1nc(C(F)(F)F)cc1-c1ccc(NC(=O)c2c(F)cccc2F)c(F)c1`: the IC50 on Orai1/STIM1 and in the assay with RBL-2H3 cells was less than 600 nM each time.
On to `Cn1nc(C(F)(F)F)cc1-c1ccc(NC(=O)c2c(F)cncc2F)c(F)c1`, for which the IC50 at Orai1/STIM1 and with RBL-2H3 cells was less than 600 nM throughout.
Regarding `Cn1nc(C(F)(F)F)cc1-c1c(F)cc(NC(=O)c2c(F)cccc2F)cc1F`, the IC50 at Orai1/STIM1 was greater than 1200 nM; in the assay on RBL-2H3 cells, less than 600 nM.
`Cn1nc(C(F)(F)F)cc1-c1c(F)cc(NC(=O)c2ccccc2F)cc1F`: the IC50 at Orai1/STIM1 and in the assay with RBL-2H3 cells was less than 600 nM throughout.
On to `Cn1nc(C(F)(F)F)cc1-c1c(F)cc(NC(=O)c2ccc(F)cc2F)cc1F`, for which the IC50 at Orai1/STIM1 and with RBL-2H3 cells was less than 600 nM each time.
As for `Cn1nc(C(F)(F)F)cc1-c1c(F)cc(NC(=O)c2c(F)cncc2F)cc1F`, the IC50 at Orai1/STIM1 is 600 to 1200 nM; in the assay with RBL-2H3 cells it was less than 600 nM.
Regarding `Cn1nc(C(F)(F)F)cc1-c1ccc(NC(=O)c2c(F)cccc2F)cc1`, the IC50 on Orai1/STIM1 and in the assay with RBL-2H3 cells was less than 600 nM in each case.
Consider `Cn1nc(C(F)(F)F)cc1-c1ccc(NC(=O)c2ccccc2F)cc1`, for which the IC50 at Orai1/STIM1 and in the assay on RBL-2H3 cells was less than 600 nM each time.
In the case of `Cn1nc(C(F)(F)F)cc1-c1ccc(NC(=O)c2ccc(F)cc2F)cc1`, the IC50 on Orai1/STIM1 and in the assay with RBL-2H3 cells was less than 600 nM each time.
Turning to `Cn1nc(C(F)(F)F)cc1-c1ccc(NC(=O)c2c(F)cncc2F)cc1`, the IC50 at Orai1/STIM1 and with RBL-2H3 cells was less than 600 nM each time.
Consider `O=C(Nc1ccc(-n2nc(C(F)(F)F)cc2C(F)(F)F)cc1)c1ccncc1F`, for which the results for the IC50 on Orai1/STIM1 and in the assay on RBL-2H3 cells were 600 to 1200 nM and less than 600 nM, respectively.
The like results for `O=C(Nc1ccc(-n2nc(C(F)(F)F)cc2C(F)(F)F)cc1)c1c(F)cncc1F` were, in that order, greater than 1200 nM and less than 600 nM.
For `Cc1cc2c(cc1-c1ccc(NC(=O)c3c(F)cccc3F)cc1)OC(F)(F)O2`, the IC50 at Orai1/STIM1 was greater than 1200 nM; with RBL-2H3 cells it was less than 600 nM.
As for `Cc1cc2c(cc1-c1ccc(NC(=O)c3ccccc3F)cc1)OC(F)(F)O2`, the IC50 at Orai1/STIM1 is 600 to 1200 nM; with RBL-2H3 cells, less than 600 nM.
For `Cc1cc2c(cc1-c1ccc(NC(=O)c3c(F)cncc3F)cc1)OC(F)(F)O2`, the IC50 at Orai1/STIM1 was greater than 1200 nM; in the assay with RBL-2H3 cells, less than 600 nM.
With `Cc1cc2c(cc1-c1ccc(NC(=O)c3ccncc3F)cc1)OC(F)(F)O2`, the IC50 on Orai1/STIM1 was 600 to 1200 nM; in the assay with RBL-2H3 cells, less than 600 nM.
Consider `Cc1cc2c(cc1-c1ccc(NC(=O)c3cncc(F)c3)cc1)OC(F)(F)O2`, for which the IC50 at Orai1/STIM1 is 600 to 1200 nM; in the assay with RBL-2H3 cells it was less than 600 nM.
Take `Cc1cc2c(cc1-c1ccc(NC(=O)c3snnc3C)cc1)OC(F)(F)O2`: the IC50 is 600 to 1200 nM on Orai1/STIM1 and less than 600 nM in the assay with RBL-2H3 cells.
The matching figures for `Cc1cc2c(cc1-c1ccc(NC(=O)c3scnc3C)cc1)OC(F)(F)O2`: 600 to 1200 nM and less than 600 nM.
Regarding `Cc1cc2c(cc1-c1ccc(NC(=O)c3c(F)cccc3F)cc1F)OC(F)(F)O2`, the results for the IC50 at Orai1/STIM1 and in the assay with RBL-2H3 cells were greater than 1200 nM and less than 600 nM, respectively.
For the molecule `Cc1cc2c(cc1-c1ccc(NC(=O)c3ccccc3F)cc1F)OC(F)(F)O2`, the values for the IC50 at Orai1/STIM1 and in the assay with RBL-2H3 cells were greater than 1200 nM and less than 600 nM, respectively.
Consider `Cc1cc2c(cc1-c1ccc(NC(=O)c3c(C)cccc3F)cc1F)OC(F)(F)O2`, for which the IC50 on Orai1/STIM1 was greater than 1200 nM; in the assay with RBL-2H3 cells, less than 600 nM.
`Cc1cc2c(cc1-c1ccc(NC(=O)c3c(F)cncc3F)cc1F)OC(F)(F)O2`: the IC50 at Orai1/STIM1 was greater than 1200 nM; in the assay on RBL-2H3 cells it was less than 600 nM.
The matching figures for `Cc1nn(C(F)F)cc1-c1ccc(NC(=O)c2ccccc2F)cc1F`: less than 600 nM and 600 to 1200 nM.
The like results for `Cc1cccc(F)c1C(=O)Nc1ccc(-c2cn(C(F)F)nc2C)c(F)c1` were, in that order, less than 600 nM and less than 600 nM.
Consider `Cc1nn(C(F)F)cc1-c1ccc(NC(=O)c2c(F)cccc2F)cc1F`, for which the IC50 at Orai1/STIM1 and in the assay on RBL-2H3 cells was less than 600 nM each time.
On to `Cc1nn(C(F)F)cc1-c1ccc(NC(=O)c2c(F)cc(F)cc2F)cc1F`, for which the IC50 on Orai1/STIM1 and in the assay on RBL-2H3 cells was less than 600 nM throughout.
`CCn1nc(C(F)(F)F)cc1-c1ccc(NC(=O)c2ccccc2F)cc1`: the IC50 at Orai1/STIM1 and with RBL-2H3 cells was less than 600 nM each time.
Turning to `CCn1nc(C(F)(F)F)cc1-c1ccc(NC(=O)c2c(F)cccc2F)cc1`, the IC50 at Orai1/STIM1 and in the assay on RBL-2H3 cells was less than 600 nM throughout.
Consider `CCn1nc(C(F)(F)F)cc1-c1ccc(NC(=O)c2ccccc2F)cc1F`, for which the IC50 at Orai1/STIM1 and in the assay on RBL-2H3 cells was less than 600 nM in each case.
Take `CCn1nc(C(F)(F)F)cc1-c1ccc(NC(=O)c2c(F)cccc2F)cc1F`: the IC50 at Orai1/STIM1 and in the assay on RBL-2H3 cells was less than 600 nM throughout.
Take `Cc1ccccc1C(=O)Nc1ccc(-c2nc(C(F)(F)F)sc2C)cc1`: the IC50 on Orai1/STIM1 and in the assay with RBL-2H3 cells was less than 600 nM throughout.
As for `Cc1sc(C(F)(F)F)nc1-c1ccc(NC(=O)c2ccccc2F)cc1`, the IC50 at Orai1/STIM1 and with RBL-2H3 cells was less than 600 nM in each case.
As for `Cc1cccc(F)c1C(=O)Nc1ccc(-c2nc(C(F)(F)F)sc2C)cc1`, the IC50 at Orai1/STIM1 and in the assay with RBL-2H3 cells was less than 600 nM throughout.
Regarding `Cc1sc(C(F)(F)F)nc1-c1ccc(NC(=O)c2c(F)cccc2F)cc1`, the IC50 at Orai1/STIM1 and in the assay with RBL-2H3 cells was less than 600 nM in each case.
With `Cc1sc(C(F)(F)F)nc1-c1ccc(NC(=O)c2c(F)cc(F)cc2F)cc1`, the IC50 on Orai1/STIM1 and with RBL-2H3 cells was less than 600 nM throughout.
Consider `Cc1cc(F)ccc1C(=O)Nc1ccc(-c2cc(C(F)(F)F)nn2C)c(F)c1`, for which the IC50 on Orai1/STIM1 and in the assay with RBL-2H3 cells was less than 600 nM throughout.
For `Cc1cc(F)ccc1C(=O)Nc1ccc(-n2nc(C(F)(F)F)cc2C)c(F)c1`, the IC50 at Orai1/STIM1 is 600 to 1200 nM; with RBL-2H3 cells, less than 600 nM.
In the case of `Cc1cc(F)ccc1C(=O)Nc1ccc(-n2cc(C(F)(F)F)nc2C)c(F)c1`, the values for the IC50 at Orai1/STIM1 and in the assay with RBL-2H3 cells were greater than 1200 nM and less than 600 nM, respectively.
With `Cc1cc(F)ccc1C(=O)Nc1ccc(-c2cc(C(F)F)nn2C)c(F)c1`, the IC50 on Orai1/STIM1 and in the assay on RBL-2H3 cells was less than 600 nM each time.
Take `CCn1nc(C(F)(F)F)cc1-c1ccc(NC(=O)c2c(F)cc(F)cc2F)cc1F`: the values for the IC50 on Orai1/STIM1 and with RBL-2H3 cells were 600 to 1200 nM and less than 600 nM, respectively.
